The supplement of paper PMC10307832

Legend:
Test in all cases: relative viability (nuclei count vs DMSO), 5 days (fraction); higher = more cells survive
JZL-184 + Foretinib = compound: C1CN(CCC1C(C2=CC3=C(C=C2)OCO3)(C4=CC5=C(C=C4)OCO5)O)C(=O)OC6=CC=C(C=C6)[N+](=O)[O-] [JZL-184] + COc1cc2c(Oc3ccc(NC(=O)C4(C(=O)Nc5ccc(F)cc5)CC4)cc3F)ccnc2cc1OCCCN1CCOCC1 [Foretinib] (partner 0.25 µM)
In short: (§1)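 Each reported value is a median over duplicate plates. It expresses relative viability: treated-well nuclei count divided by vehicle-well nuclei count. Lung cancer cell lines in 1536-well plates were dosed by pin tool a day after seeding, alone with one drug or with a fixed anchor-drug dose plus five library-drug doses (not always all listed) in √10 steps, and nuclei were counted after 5 days.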

JZL-184 + Decitabine = compound: C1CN(CCC1C(C2=CC3=C(C=C2)OCO3)(C4=CC5=C(C=C4)OCO5)O)C(=O)OC6=CC=C(C=C6)[N+](=O)[O-] [JZL-184] + Nc1ncn([C@H]2C[C@H](O)[C@@H](CO)O2)c(=O)n1 [Decitabine] (partner 2 µM)
In short: as §1

JZL-184 + Alpelisib = compound: C1CN(CCC1C(C2=CC3=C(C=C2)OCO3)(C4=CC5=C(C=C4)OCO5)O)C(=O)OC6=CC=C(C=C6)[N+](=O)[O-] [JZL-184] + Cc1nc(NC(=O)N2CCC[C@H]2C(N)=O)sc1-c1ccnc(C(C)(C)C(F)(F)F)c1 [Alpelisib] (partner 2 µM)
In short: as §1

JZL-184 + OSI-027 = compound: C1CN(CCC1C(C2=CC3=C(C=C2)OCO3)(C4=CC5=C(C=C4)OCO5)O)C(=O)OC6=CC=C(C=C6)[N+](=O)[O-] [JZL-184] + COc1cccc2cc(-c3nc([C@H]4CC[C@H](C(=O)O)CC4)n4ncnc(N)c34)[nH]c12 [OSI-027] (partner 0.5 µM)
In short: as §1

JZL-184 + Luminespib = compound: C1CN(CCC1C(C2=CC3=C(C=C2)OCO3)(C4=CC5=C(C=C4)OCO5)O)C(=O)OC6=CC=C(C=C6)[N+](=O)[O-] [JZL-184] + CCNC(=O)c1noc(-c2cc(C(C)C)c(O)cc2O)c1-c1ccc(CN2CCOCC2)cc1 [Luminespib] (partner 0.01 µM)
In short: as §1

What does the source list for ABC-1?
relative viability (JZL-184 + Foretinib; first compound 0.04 µM): 1.23; relative viability (JZL-184 + Foretinib; first compound 0.4 µM): 0.986; relative viability (JZL-184 + Foretinib; first compound 1.265 µM): 1.12; relative viability (JZL-184 + Foretinib; first compound 4 µM): 1.09; relative viability (JZL-184 + Decitabine; first compound 0.04 µM): 1.59; relative viability (JZL-184 + Decitabine; first compound 0.4 µM): 1.07; relative viability (JZL-184 + Decitabine; first compound 1.265 µM): 1.03; relative viability (JZL-184 + Decitabine; first compound 4 µM): 1.22; relative viability (JZL-184 + Alpelisib; first compound 0.04 µM): 1.1; relative viability (JZL-184 + Alpelisib; first compound 0.4 µM): 0.996; relative viability (JZL-184 + Alpelisib; first compound 1.265 µM): 1.06; relative viability (JZL-184 + Alpelisib; first compound 4 µM): 0.952; relative viability (JZL-184 + OSI-027; first compound 0.04 µM): 0.644; relative viability (JZL-184 + OSI-027; first compound 0.4 µM): 0.441; relative viability (JZL-184 + OSI-027; first compound 1.265 µM): 0.667; relative viability (JZL-184 + OSI-027; first compound 4 µM): 0.448; relative viability (JZL-184 + Luminespib; first compound 0.04 µM): 1.23; relative viability (JZL-184 + Luminespib; first compound 0.4 µM): 0.557; relative viability (JZL-184 + Luminespib; first compound 1.265 µM): 0.628; relative viability (JZL-184 + Luminespib; first compound 4 µM): 0.495

With NCI-H1437 as the cell line, how does the relative viability (JZL-184 + Foretinib; first compound 0.04 µM) read?
The relative viability was 1.27.

And the relative viability (JZL-184 + Foretinib; first compound 0.4 µM)?
Its relative viability is 1.16.

And the relative viability (JZL-184 + Foretinib; first compound 1.265 µM)?
The relative viability was 1.31.

And the relative viability (JZL-184 + Foretinib; first compound 4 µM)?
Its relative viability is 1.21.

What about the relative viability (JZL-184 + Decitabine; first compound 0.04 µM) of the same cell line?
Its relative viability is 0.649.

What about the relative viability (JZL-184 + Decitabine; first compound 0.4 µM) of the same cell line?
Its relative viability is 0.611.

And the relative viability (JZL-184 + Decitabine; first compound 1.265 µM)?
Its relative viability is 0.585.

And the relative viability (JZL-184 + Decitabine; first compound 4 µM)?
The relative viability was 0.561.

And the relative viability (JZL-184 + Alpelisib; first compound 0.04 µM)?
Its relative viability is 1.12.

And the relative viability (JZL-184 + Alpelisib; first compound 0.4 µM)?
The relative viability was 0.971.

What about the relative viability (JZL-184 + Alpelisib; first compound 1.265 µM) of the same cell line?
The relative viability was 0.92.

What about the relative viability (JZL-184 + Alpelisib; first compound 4 µM) of the same cell line?
Its relative viability is 0.916.

What about the relative viability (JZL-184 + OSI-027; first compound 0.04 µM) of the same cell line?
The relative viability was 0.88.

And the relative viability (JZL-184 + OSI-027; first compound 0.4 µM)?
Its relative viability is 0.849.

What about the relative viability (JZL-184 + OSI-027; first compound 1.265 µM) of the same cell line?
The relative viability was 0.849.

And the relative viability (JZL-184 + OSI-027; first compound 4 µM)?
Its relative viability is 0.866.

And the relative viability (JZL-184 + Luminespib; first compound 0.04 µM)?
The relative viability was 1.19.

What about the relative viability (JZL-184 + Luminespib; first compound 0.4 µM) of the same cell line?
The relative viability was 1.14.

And the relative viability (JZL-184 + Luminespib; first compound 1.265 µM)?
The relative viability was 0.947.

And the relative viability (JZL-184 + Luminespib; first compound 4 µM)?
Its relative viability is 1.08.

Which results are given for HOP-62?
relative viability (JZL-184 + Foretinib; first compound 0.04 µM): 1.16; relative viability (JZL-184 + Foretinib; first compound 0.4 µM): 1.08; relative viability (JZL-184 + Foretinib; first compound 1.265 µM): 1.09; relative viability (JZL-184 + Foretinib; first compound 4 µM): 1.03; relative viability (JZL-184 + Decitabine; first compound 0.04 µM): 0.249; relative viability (JZL-184 + Decitabine; first compound 0.4 µM): 0.197; relative viability (JZL-184 + Decitabine; first compound 1.265 µM): 0.233; relative viability (JZL-184 + Decitabine; first compound 4 µM): 0.214; relative viability (JZL-184 + Alpelisib; first compound 0.04 µM): 1.13; relative viability (JZL-184 + Alpelisib; first compound 0.4 µM): 1.05; relative viability (JZL-184 + Alpelisib; first compound 1.265 µM): 1.05; relative viability (JZL-184 + Alpelisib; first compound 4 µM): 0.96; relative viability (JZL-184 + OSI-027; first compound 0.04 µM): 0.981; relative viability (JZL-184 + OSI-027; first compound 0.4 µM): 0.805; relative viability (JZL-184 + OSI-027; first compound 1.265 µM): 0.826; relative viability (JZL-184 + OSI-027; first compound 4 µM): 0.866; relative viability (JZL-184 + Luminespib; first compound 0.04 µM): 1.03; relative viability (JZL-184 + Luminespib; first compound 0.4 µM): 0.968; relative viability (JZL-184 + Luminespib; first compound 1.265 µM): 0.902; relative viability (JZL-184 + Luminespib; first compound 4 µM): 0.957

How did the relative viability (JZL-184 + Foretinib; first compound 0.04 µM) turn out when EPLC-272H was run?
The relative viability was 0.773.

And the relative viability (JZL-184 + Foretinib; first compound 0.4 µM)?
Its relative viability is 0.668.

What about the relative viability (JZL-184 + Foretinib; first compound 1.265 µM) of the same cell line?
Its relative viability is 0.907.

And the relative viability (JZL-184 + Foretinib; first compound 4 µM)?
The relative viability was 0.712.

And the relative viability (JZL-184 + Decitabine; first compound 0.04 µM)?
The relative viability was 0.356.

And the relative viability (JZL-184 + Decitabine; first compound 0.4 µM)?
The relative viability was 0.386.

What about the relative viability (JZL-184 + Decitabine; first compound 1.265 µM) of the same cell line?
Its relative viability is 0.396.

And the relative viability (JZL-184 + Decitabine; first compound 4 µM)?
The relative viability was 0.384.

What about the relative viability (JZL-184 + Alpelisib; first compound 0.04 µM) of the same cell line?
The relative viability was 0.953.

What about the relative viability (JZL-184 + Alpelisib; first compound 0.4 µM) of the same cell line?
Its relative viability is 0.817.

And the relative viability (JZL-184 + Alpelisib; first compound 1.265 µM)?
The relative viability was 1.01.

What about the relative viability (JZL-184 + Alpelisib; first compound 4 µM) of the same cell line?
The relative viability was 0.966.

And the relative viability (JZL-184 + OSI-027; first compound 0.04 µM)?
The relative viability was 0.311.

What about the relative viability (JZL-184 + OSI-027; first compound 0.4 µM) of the same cell line?
The relative viability was 0.259.

And the relative viability (JZL-184 + OSI-027; first compound 1.265 µM)?
The relative viability was 0.35.

And the relative viability (JZL-184 + OSI-027; first compound 4 µM)?
The relative viability was 0.351.

And the relative viability (JZL-184 + Luminespib; first compound 0.04 µM)?
Its relative viability is 0.242.

And the relative viability (JZL-184 + Luminespib; first compound 0.4 µM)?
Its relative viability is 0.241.

And the relative viability (JZL-184 + Luminespib; first compound 1.265 µM)?
Its relative viability is 0.886.

What about the relative viability (JZL-184 + Luminespib; first compound 4 µM) of the same cell line?
The relative viability was 0.84.
